Experimental data as given in patent publication US8178713B2, “Sulfur-containing phospholipid derivatives” (Pronovo Biopharma Norge AS, priority 2002, dated 2012).
Marks after values point to notes of the source that are not given here.

What was measured:
male Wistar rats [1] = experiment: Effect of esterified and non-esterified TTA on hepatic triacylglycerol content; type: in vivo, rat; conditions: 6 days; for hepatic Triacylglycerol content: fed 1 mmole TTA/day/kg body weight, control 3.71 ± 0.50
Description: (§1) Male wistar rats (4-5 rats in each treatment group) were fed TTA, TTA-PC or TTA-TAG at equimolar doses of TTA (1 mmole/day/kg body weight) for 6 days. Control rats received only 0.5% CMC. The rats were sacrificed and evaluated for lipid lowering effects, increased fatty acid oxidation, and activity of key mitochondrian enzymes, carnitine palmitoyltransferase-II, 3-hydroxy-3-methylglutharyl-CoA synthase and fatty acyl-CoA oxidases.
(§2) Male Wistar Charles River rats weighing 200-250 g at the start of the experiment were housed in metal wire cages in a temperature (22±1° C.) and light-controlled (light from 7.00 a.m. to 7.00 p.m.) room. They were given free access to chow and water. They were fed a Standard Laboratory Rat Chow R-34-EWOS-ALAB (EWOS Sweden) grower rat maintenance chow. Two rats were housed per cage. The animals were acclimatized for at least 5 days before the start of the experiments. Weight gain and food intake were recorded daily. TTA and esterified TFAs (1,2-Di(1,2-Di(tetradecylthioacetoyl)-sn -glycero-3-phosphocholine (TTA-PC) and Glyceryl 1,2,3-Tri(tetradecylthioacetate) (triacylglycerol) (TTA-TAG)) were suspended in 0.5% carboxymethylcellulose (CMC) and administered by gastric intubation in a final volume of 0.8-1.2 ml once a day for 6 days.

[2] = test system: Palmitoyl-CoA oxidation in rat liver homogenate; experiment: Palmitoyl-CoA oxidation in rat liver homogenate after feeding; type: in vivo; conditions: fed 1 mmole TTA/day/kg, 6 days, control 0.75 ± 0.06
Description: as §1
(§3) Male Wistar Charles River rats weighing 200-250 g at the start of the experiment were housed in metal wire cages in a temperature (22±1° C.) and light-controlled (light from 7.00 a.m. to 7.00 p.m.) room. They were given free access to chow and water. […] Weight gain and food intake were recorded daily. […]
(§4) Freshly isolated livers from individual male wistar rats, were homogenised in ice-cold sucrose buffer (0.25 M sucrose, 10 mM HEPES (pH 7.4) and 2 mM EDTA). […] Acid soluble products were measured in post-nuclear fractions, using [1-^14C]-palmitoyl-CoA (Radiochemical Centre, Amersham, England) as substrates as described in literature.^15 Carnitine palmitoyltransferase-II activities were measured in the mitochondrial fraction essentially as described by Bremer^16 and 3-hydroxy-3-methylglutharyl-CoA synthase was measured according to Clinkenbeard et al.^17 in the post-nuclear fraction. […]

Fatty acyl-CoA oxidase = Fatty acyl-CoA oxidase activity in rat liver homogenate after feeding; type: in vivo; conditions: fed 1 mmole TTA/day/kg, 6 days, control 16.50 ± 4.74
Description: as §1, §3, §4

male Wistar rats [3] = experiment: Effect of esterified and non-esterified TTA on plasma lipids, fed for 6 days; type: in vivo, rat; conditions: for plasma Triacylglycerol / plasma Cholesterol: fed at equimolar doses of TTA, 1 mmole/day/kg body weight; for plasma Triacylglycerol: control (0.5% CMC) 1.20 ± 0.35; for plasma Cholesterol: control (0.5% CMC) 1.84 ± 0.25
Description: as §1, §2
At the end of the experiments the animals were anaesthetized with Fluorane (0.4 ml/100 g body weight) and cardiac puncture was performed to obtain blood samples in EDTA containing vacutainers. Plasma was prepared and triacylglycerol and cholesterol were measured using the Monotest enzymatic kit (Boehringer Mannheim, Germany).

[4] = test system: 3-Hydroxy-3-methylglutharyl-CoA synthase; experiment: 3-Hydroxy-3-methylglutharyl-CoA synthase activity in rat liver homogenate after feeding; type: in vivo; conditions: fed 1 mmole TTA/day/kg, 6 days; for 3-Hydroxy-3-methylglutharyl-CoA synthase Enzyme activity: rat liver homogenate, control 28.23 ± 4.43
Description: as §1
Male Wistar Charles River rats weighing 200-250 g at the start of the experiment were housed in metal wire cages in a temperature (22±1° C.) and light-controlled (light from 7.00 a.m. to 7.00 p.m.) room. They were given free access to chow and water. They were fed a Standard Laboratory Rat Chow R-34-EWOS-ALAB (EWOS Sweden) grower rat maintenance chow. Two rats were housed per cage. The animals were acclimatized for at least 5 days before the start of the experiments. Weight gain and food intake were recorded daily. […]
Freshly isolated livers from individual male wistar rats, were homogenised in ice-cold sucrose buffer (0.25 M sucrose, 10 mM HEPES (pH 7.4) and 2 mM EDTA). […] Acid soluble products were measured in post-nuclear fractions, using [1-^14C]-palmitoyl-CoA (Radiochemical Centre, Amersham, England) as substrates as described in literature.^15 Carnitine palmitoyltransferase-II activities were measured in the mitochondrial fraction essentially as described by Bremer^16 and 3-hydroxy-3-methylglutharyl-CoA synthase was measured according to Clinkenbeard et al.^17 in the post-nuclear fraction. Fatty acyl-CoA oxidase was measured in the post-nuclear fraction by the coupled assay described by Small et al.^18 The production of hydrogen peroxide was measured by monitoring the increase in dichlorofluorescein absorbance in the presence of palmitoyl-CoA.

[5] = test system: mitochondrial carnitine palmitoyltransferase-II; experiment: Mitochondrial carnitine palmitoyltransferase-II activity after feeding; type: in vivo, rat; conditions: mitochondrial fraction of liver; fed 1 mmole TTA/day/kg, 6 days; control 8.32 ± 1.42
Description: as §1, §3, §4

With `CCCCCCCCCCCCCCSCC(=O)OC[C@H](COP(=O)([O-])OCC[N+](C)(C)C)OC(=O)CSCCCCCCCCCCCCCC` [TTA-PC, 1,2-ditetradecylthioacetoyl-sn-glycero-3-phosphocholine] as the molecule, how does the “hepatic Triacylglycerol content” value (male Wistar rats [1]) read?
Its value is 2.53 ± 0.43^a μmol/mg protein.

And the “decrease in the hepatic triacylglycerol level compared to the control (largest decrease)” value (male Wistar rats [1]; fed 1 mmole TTA/day/kg)?
Its value is 30%.

What about the Palm-CoA oxidised [2] of the same molecule?
The Palm-CoA oxidised was 1.39 ± 0.15^a nmol/mg/min.

And the “Fatty acyl-CoA oxidase Enzyme activity” value (Fatty acyl-CoA oxidase)?
The value was 129.48 ± 15.08^a,b nmol/mg/min.

What about the “decrease in plasma triacylglycerol and cholesterol levels compared to the control (largest decrease)” value (male Wistar rats [3]; fed 1 mmole TTA/day/kg) of the same molecule?
The value was 60%.

What about the “plasma Triacylglycerol” value (male Wistar rats [3]) of the same molecule?
The value was 0.47 ± 0.21^a,b mmol/L.

And the “plasma Cholesterol” value (male Wistar rats [3])?
The value was 0.74 ± 0.20^a mmol/L.

What about the “increased 3-hydroxy-3-methylglutharyl-CoA synthase activity relative to that after feeding non-esterified TTA” value [4] of the same molecule?
Its value is “more than three times as large”.

And the “3-Hydroxy-3-methylglutharyl-CoA synthase Enzyme activity” value [4]?
Its value is 97.77 ± 20.51^a,b nmol/mg/min.

What about the “carnitine palmitoyltransferase-II Enzyme activity” value [5] of the same molecule?
The value was 31.96 ± 2.63^a,b nmol/mg/min.

With `CCCCCCCCCCCCCCSCC(=O)OCC(COC(=O)CSCCCCCCCCCCCCCC)OC(=O)CSCCCCCCCCCCCCCC` [TTA-TAG, 1,2,3-Tritetradecylthioacetoyl-sn-glycerol] as the molecule, how does the “hepatic Triacylglycerol content” value (male Wistar rats [1]) read?
Its value is 2.88 ± 0.50^a μmol/mg protein.

What about the Palm-CoA oxidised [2] of the same molecule?
Its Palm-CoA oxidised is 1.37 ± 0.08^a nmol/mg/min.

And the “Fatty acyl-CoA oxidase Enzyme activity” value (Fatty acyl-CoA oxidase)?
Its value is 49.87 ± 22.51^a nmol/mg/min.

What about the “plasma Triacylglycerol” value (male Wistar rats [3]) of the same molecule?
Its value is 0.56 ± 0.21^a mmol/L.

What about the “plasma Cholesterol” value (male Wistar rats [3]) of the same molecule?
The value was 1.18 ± 0.12^a mmol/L.

What about the “3-Hydroxy-3-methylglutharyl-CoA synthase Enzyme activity” value [4] of the same molecule?
The value was 40.35 ± 6.16^a nmol/mg/min.

And the “carnitine palmitoyltransferase-II Enzyme activity” value [5]?
The value was 17.88 ± 4.37^a nmol/mg/min.
